System: human keratinocyte cell (KAC Co., Ltd.: KER110)
Test: Cell proliferation test (Cell Counting Kit-8) in TGP culturing substrate
Format: cell-based
Settings: 7 days culture, control = 100%, p < 0.01 (Dunnett)
Method: human keratinocyte cell (KAC Co., Ltd.: KER110)
the composition of the present disclosure comprising the polymer compound (TGP in Preparation Example 1) and oligopeptide of the present disclosure.
Frozen human keratinocyte cells (KAC Co., Ltd.: KER110) were dissolved in warm water at 37° C., suspended in EpiLife Medium (Thermo Fisher Scientific, Inc.: MEPI500CA) to which Human Keratinocyte Growth Supplement (HKGS) (Thermo Fisher Scientific, Inc.: S0015) was added, seeded in a 25 cm^2 flask, and cultured at 37° C. in an atmosphere containing 5% CO2.
The cultured cells were washed with DPBS (Thermo Fisher Scientific, Inc.: 14190144), and a trypsin solution (Thermo Fisher Scientific, Inc.: 12604013) was added to the cultured cells to recover cells and was centrifuged at 1,000 rpm for three minutes. After the centrifugation, supernatant was removed. A cell suspension obtained by adding a culture solution to a cell sediment was seeded in a 25 cm^2 flask and subcultured at 37° C. in an atmosphere containing 5% CO2.
The tripeptide in Preparation Example 3 was dissolved in a culture medium to prepare six samples having concentrations of 1 µM, 3 µM, 10 µM, 30 µM, 100 µM, and 1000 µM. A control includes only a culture medium.
The polymer compound (TGP in Preparation Example 1) of the present disclosure is added into a 48-well plate and freeze-dried. 120 µL of the six samples of the above concentrations and the control culture medium were added to the respective wells, and each mixture was dissolved with cooling at 4° C. overnight.
30 µL of a cell suspension recovered through the same procedure as the subculture operation was seeded in the polymer compound of the present disclosure in the 48-well plate and gelled at 37° C. for 30 minutes in an atmosphere containing 5% CO2. Then, 300 µL of the six samples of the above concentrations and control culture medium were layered and cultured at 37° C. in an atmosphere containing 5% CO2.
After culturing for 7 days, 250 µL of culture supernatant was removed, 60 µL of Cell Counting Kit-8 (Doujin Kagaku Co., Ltd.) was added and the mixture was reacted overnight at 37° C. in an atmosphere containing 5% CO2. 80 µL of the supernatant of an obtained reaction product was dispensed into a 96-well plate. This supernatant was measured with a microplate reader at a measurement wavelength of 450 nm to evaluate cell proliferation.
The cell proliferation rates of 1 µM, 3 µM, 10 µM, 30 µM, 100 µM, and 1000 µM samples were compared with that of a control, and the results are shown in Table 1 below.

CC[C@H](C)[C@H](NC(=O)[C@@H]1CCCN1)C(=O)NCC(=O)O (racemic) [Preparation Example 3, prolyl-isoleucyl-glycine]
Cell Proliferation Rates (1 µM tripeptide in TGP substrate): 114% | Cell Proliferation Rates (3 µM tripeptide in TGP substrate): 116% | Cell Proliferation Rates (10 µM tripeptide in TGP substrate): 118% | Cell Proliferation Rates (30 µM tripeptide in TGP substrate): 126% | Cell Proliferation Rates (100 µM tripeptide in TGP substrate): 126% | Cell Proliferation Rates (1000 µM tripeptide in TGP substrate): 128%

Source: patent publication US20230203094A1, “Composition Comprising Thermosensitive Gel and Oligopeptide, and Use Thereof” (International Frontier Technology Laboratory, Inc., priority 2019, published 2023)
